For 1 compound, Drug uptake results are on record in ChEMBL document CHEMBL1152441, “Discovery of [18F]N-(2-(diethylamino)ethyl)-6-fluoronicotinamide: a melanoma positron emission tomography imaging radiotracer with high tumor to body contrast ratio and rapid renal clearance” (J Med Chem, 2009).

What all share (settings): in vivo
In series [1] the test system is Stomach. Nature of the series: Biodistribution in stomach of mouse B16F0 cells implanted C57BL/6J mouse assessed per gram of tissue at 0.4 to 5.5 MBq, iv after 0.25 hrs by gamma counter. In kind it is ADME, organism-based.
For series [2], the system named is Lung. The series is described as follows: Biodistribution in lung of mouse B16F0 cells implanted C57BL/6J mouse assessed per gram of tissue at 0.4 to 5.5 MBq, iv after 0.25 hrs by gamma counter. It is filed as ADME, organism-based.
The subject of series [3] is Stomach. The series is described as follows: Biodistribution in stomach of mouse B16F0 cells implanted C57BL/6J mouse assessed per gram of tissue at 0.4 to 5.5 MBq, iv after 1 hr by gamma counter. It is filed as ADME, organism-based.
Series [4] deals with Bone. The series is described as follows: Biodistribution in bone of mouse B16F0 cells implanted C57BL/6J mouse assessed per gram of tissue at 0.4 to 5.5 MBq, iv after 2 hrs by gamma counter. In kind it is ADME, organism-based, Bone element.
Series [5] deals with Intestine. Nature of the series: Biodistribution in intestine of mouse B16F0 cells implanted C57BL/6J mouse assessed per gram of tissue at 0.4 to 5.5 MBq, iv after 2 hrs by gamma counter. It is filed as ADME, organism-based.
The nature of series [6]: Biodistribution in tumor of mouse B16F0 cells implanted C57BL/6J mouse assessed per gram of tissue at 0.4 to 5.5 MBq, iv after 6 hrs by gamma counter. In kind it is ADME, organism-based, Neoplasm.
The subject of series [7] is Stomach. The series is described as follows: Biodistribution in stomach of mouse B16F0 cells implanted C57BL/6J mouse assessed per gram of tissue at 0.4 to 5.5 MBq, iv after 6 hrs by gamma counter. It is filed as ADME, organism-based.
For series [8], the system named is Thyroid gland. The series is described as follows: Biodistribution in thyroid of mouse B16F0 cells implanted C57BL/6J mouse assessed per gram of tissue at 0.4 to 5.5 MBq, iv after 0.5 hrs by gamma counter. In kind it is ADME, organism-based.
Series [9] relates to Thyroid gland. The series is described as follows: Biodistribution in thyroid of mouse B16F0 cells implanted C57BL/6J mouse assessed per gram of tissue at 0.4 to 5.5 MBq, iv after 2 hrs by gamma counter. In kind it is ADME, organism-based.
Series [10] in a line: Biodistribution in tumor of mouse B16F0 cells implanted C57BL/6J mouse assessed per gram of tissue at 0.4 to 5.5 MBq, iv after 2 hrs by gamma counter. In kind it is ADME, organism-based, Neoplasm.
The test system of series [11] is Thyroid gland. Nature of the series: Biodistribution in thyroid of mouse B16F0 cells implanted C57BL/6J mouse assessed per gram of tissue at 0.4 to 5.5 MBq, iv after 1 hr by gamma counter. In kind it is ADME, organism-based.
Series [12] is described as follows: Biodistribution in tumor of mouse B16F0 cells implanted C57BL/6J mouse assessed per gram of tissue at 0.4 to 5.5 MBq, iv after 0.25 hrs by gamma counter. In kind it is ADME, organism-based, Neoplasm.
Series [13] can be described thus: Biodistribution in tumor of mouse B16F0 cells implanted C57BL/6J mouse assessed per gram of tissue at 0.4 to 5.5 MBq, iv after 1 hr by gamma counter. In kind it is ADME, organism-based, Neoplasm.

Regarding `CCN(CC)CCNC(=O)c1ccc([18F])nc1`, the Drug uptake came to 9.4% in series [1]; 5.6% in [2]; 3.4% in series [3]; 0.58% in series [4]; 0.71% in series [5]; 7.7% in [6]. Moreover, the Drug uptake in [7] was 0.19%; in series [8], 2.5%; in series [9], 0.61%; in series [10] it was 9.4%; in [11] it was 3.3%; in series [12], 7%. Further, the Drug uptake in series [13] worked out at 8.4%.
